The results in this text go back to patent US7902373B2 (Pfizer Inc, priority 2006, dated 2011).

Molecules are shown by their SMILES.

The target of this assay is human recombinant H-PGDS (Homo sapiens, UniProt O60760). Kind of assay: Fluorescence intensity h-PGDS TBA enzyme assay. The class given is biochemical. As to conditions: Examples up to 622 (and 3a, 3b).
Chain of human recombinant H-PGDS (O60760 whole entry): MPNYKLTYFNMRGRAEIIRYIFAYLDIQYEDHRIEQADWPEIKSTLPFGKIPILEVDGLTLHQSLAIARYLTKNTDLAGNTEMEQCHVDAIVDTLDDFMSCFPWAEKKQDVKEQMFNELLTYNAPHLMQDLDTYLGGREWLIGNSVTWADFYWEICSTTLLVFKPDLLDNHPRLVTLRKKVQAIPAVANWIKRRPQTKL

The term IC50 denotes the midpoint of a concentration-inhibition curve. Consider `O=C(NC1CCN(Cc2ccc3[nH]ccc3c2)CC1)c1ccc(-c2cccc(F)c2)nc1` [Example 304, 6-(3-Fluorophenyl)-N-[1-(1H-indol-5-ylmethyl)piperidin-4-yl]nicotinamide], for which the IC50 amounted to 2.11 nM. In the case of `O=C(NC1CCN(Cc2ccc[nH]c2=O)CC1)c1ccc(-c2cccc(F)c2)nc1` [Example 272, 6-(3-Fluorophenyl)-N-{1-[(2-oxo-1,2-dihydropyridin-3-yl)methyl]piperidin-4-yl}nicotinamide], the IC50 worked out at 0.816 nM. Next, `O=C(NC1CCN(Cc2coc(-c3ccccc3)n2)CC1)c1ccc(-c2cccc(F)c2)nc1` [Example 426, 6-(3-Fluorophenyl)-N-{1-[(2-phenyl-1,3-oxazol-4-yl)methyl]piperidin-4-yl}nicotinamide]: 5.53 nM; `CCC(C)CCN1CCC(NC(=O)c2ccc(-c3cccc(F)c3)nc2)CC1` (stereo not drawn) [Example 360, 6-(3-Fluorophenyl)-N-[1-(3-methylpentyl)piperidin-4-yl]nicotinamide]: 2.76 nM; `CCOc1cc(OC)ccc1CN1CCC(NC(=O)c2ccc(-c3cccc(F)c3)nc2)CC1` [Example 306, N-[1-(2-Ethoxy-4-methoxybenzyl)piperidin-4-yl]-6-(3-fluorophenyl)nicotinamide]: 2.71 nM. As for `O=C(NC1CCN(Cc2ccno2)CC1)c1ccc(-c2cccc(F)c2)nc1` [Example 359, 6-(3-Fluorophenyl)-N-[1-(isoxazol-5-ylmethyl)piperidin-4-yl]nicotinamide], the IC50 was found to be 0.443 nM. As for `CN(CC1CC1)C(=O)c1ccc(N2CCC(NC(=O)c3ccc(-c4cccc(F)c4)nc3)CC2)nc1` [Example 574, N-(Cyclopropylmethyl)-6-[4-({[6-(3-fluorophenyl)pyridin-3-yl]carbonyl}amino)piperidin-1-yl]-N-methylnicotinamide], the IC50 was 1.24 nM. As for `O=C(NC1CCN(Cc2c[nH]nc2-c2ccc(F)cc2)CC1)c1ccc(-c2cccc(F)c2)nc1` [Example 187, 6-(3-Fluorophenyl)-N-(1-{[3-(4-fluorophenyl)-1H-pyrazol-4-yl]methyl}piperidin-4-yl)nicotinamide], the IC50 came out at 2.59 nM. The value for `O=C(NC1CCN(CC(F)(F)F)CC1)c1ccc(N2CCC(NC(=O)c3ccc(-c4cccc(F)c4)nc3)CC2)nc1` [Example 577, 6-(3-Fluorophenyl)-N-{1-[5-({[1-(2,2,2-trifluoroethyl)piperidin-4-yl]amino}carbonyl)pyridin-2-yl]piperidin-4-yl}nicotinamide] was 1.48 nM. Next, `O=C(NC1CCN(Cc2cc(Cl)c(O)c(Cl)c2)CC1)c1ccc(-c2cccc(F)c2)nc1` [Example 267, N-[1-(3,5-Dichloro-4-hydroxybenzyl)piperidin-4-yl]-6-(3-fluorophenyl)nicotinamide]: 0.994 nM; `O=C(NC1CCN(c2ncccc2C(=O)NC2Cc3ccccc3C2)CC1)c1ccc(-c2cccc(F)c2)nc1` [Example 72, N-(2,3-Dihydro-1H-inden-2-yl)-2-[4-({[6-(3-fluorophenyl)pyridin-3-yl]carbonyl}amino)piperidin-1-yl]nicotinamide]: 4.97 nM.

With `Cc1ccc(CN2CCC(NC(=O)c3ccc(-c4cccc(F)c4)nc3)CC2)cc1F` [Example 202, N-[1-(3-Fluoro-4-methylbenzyl)piperidin-4-yl]-6-(3-fluorophenyl)nicotinamide], the IC50 was 1.17 nM. Next, `COc1ccccc1-c1ncc(CN2CCC(NC(=O)c3ccc(-c4cccc(F)c4)nc3)CC2)cn1` [Example 437, 6-(3-Fluorophenyl)-N-(1-{[2-(2-methoxyphenyl)pyrimidin-5-yl]methyl}piperidin-4-yl)nicotinamide]: 3.52 nM; `Cc1cc(C)c(C#N)c(N2CCC(NC(=O)c3ccc(-c4cccc(F)c4)nc3)CC2)n1` [Example 69, N-[1-(3-Cyano-46-dimethylpyridin-2-yl)piperidin-4-yl]-6-(3-fluorophenyl)nicotinamide]: 1.21 nM. The value for `Cc1cc(CN2CCC(NC(=O)c3ccc(-c4cccc(F)c4)nc3)CC2)ccc1F` [Example 302, N-[1-(4-Fluoro-3-methylbenzyl)piperidin-4-yl]-6-(3-fluorophenyl)nicotinamide] was 0.636 nM; that for `COc1ccc(C)cc1CN1CCC(NC(=O)c2ccc(-c3cccc(F)c3)nc2)CC1` [Example 515, 6-(3-Fluorophenyl)-N-[1-(2-methoxy-5-methylbenzyl)piperidin-4-yl]nicotinamide] was 1.1 nM; that for `O=C(NC1CCN(Cc2ccc(CN3CCOCC3)cc2)CC1)c1ccc(-c2cccc(F)c2)nc1` [Example 453, 6-(3-Fluorophenyl)-N-{1-[4-(morpholin-4-ylmethyl)benzyl]piperidin-4-yl}nicotinamide] was 1.42 nM. For `Cn1ccnc1-c1nc(N2CCC(NC(=O)c3ccc(-c4cccc(F)c4)nc3)CC2)nc2ccccc12` [Example 62, 6-(3-Fluorophenyl)-N-{1-[4-(1-methyl-1H-imidazol-2-yl)quinazolin-2-yl]piperidin-4-yl}nicotinamide], the IC50 came to 3.33 nM. The value for `O=C(NC1CCN(CC(F)(F)F)CC1)c1ccc(-c2cc(F)cc(F)c2)nc1` [Example 34, 6-(3,5-Difluorophenyl)-N-[1-(2,2,2-trifluoroethyl)piperidin-4-yl]nicotinamide] was 1.85 nM. For `C[C@H](c1ccccc1)n1nnnc1N1CCC(NC(=O)c2ccc(-c3cccc(F)c3)nc2)CC1` [Example 104, 6-(3-Fluorophenyl)-N-(1-{1-[(1R)-1-phenylethyl]-1H-tetrazol-5-yl}piperidin-4-yl)nicotinamide], the IC50 was 3.18 nM. The value for `CCC(CO)n1cnc2c(N3CCC(NC(=O)c4ccc(-c5cccc(F)c5)nc4)CC3)ncnc21` (single isomer, unassigned) [Example 581, 6-(3-Fluorophenyl)-N-(1-{9-[1-(hydroxymethyl)propyl]-9H-purin-6-yl}piperidin-4-yl)nicotinamide] was 0.69 nM. The value for `O=C1COc2ncc(CN3CCC(NC(=O)c4ccc(-c5cccc(F)c5)nc4)CC3)cc2N1` [Example 514, 6-(3-Fluorophenyl)-N-{1-[(2-oxo-2,3-dihydro-1H-pyrido[2,3-b][1,4]oxazin-7-yl)methyl]piperidin-4-yl}nicotinamide] was 0.348 nM; that for `CC(CCn1cccn1)N1CCC(NC(=O)c2ccc(-c3cccc(F)c3)nc2)CC1` (stereo not drawn) [Example 548, 6-(3-Fluorophenyl)-N-{1-[1-methyl-3-(1H-pyrazol-1-yl)propyl]piperidin-4-yl}nicotinamide] was 2.07 nM. The value for `O=C(NC1CCN(Cc2cn3ccccc3n2)CC1)c1ccc(-c2cccc(F)c2)nc1` [Example 406, 6-(3-Fluorophenyl)-N-[1-(imidazo[1,2-a]pyridin-2-ylmethyl)piperidin-4-yl]nicotinamide] was 2.36 nM; that for `COCCOc1c(CN2CCC(NC(=O)c3ccc(-c4cccc(F)c4)nc3)CC2)cccc1OC` [Example 404, 6-(3-Fluorophenyl)-N-{1-[3-methoxy-2-(2-methoxyethoxy)benzyl]piperidin-4-yl}nicotinamide] was 0.469 nM; that for `Cc1cccc(-c2ccc(C(=O)NC3CCN(C(C)C)CC3)cn2)c1` [Example 25, N-(1-Isopropylpiperidin-4-yl)-6-(3-methylphenyl)nicotinamide] was 7.66 nM. On to `Cn1nc(-c2ncccn2)nc1CN1CCC(NC(=O)c2ccc(-c3cccc(F)c3)nc2)CC1` [Example 481, 6-(3-Fluorophenyl)-N-{1-[(1-methyl-3-pyrimidin-2-yl-1H-1,2,4-triazol-5-yl)methyl]piperidin-4-yl}nicotinamide], for which the IC50 is 2.45 nM. Next, `CN(C(=O)c1ccc(N2CCC(NC(=O)c3ccc(-c4cccc(F)c4)nc3)CC2)nc1)C1CCC1` [Example 569, N-Cyclobutyl-6-[4-({[6-(3-fluorophenyl)pyridin-3-yl]carbonyl}amino)piperidin-1-yl]-N-methylnicotinamide]: 2.13 nM; `O=C(NC1CCN(c2nccc(C(F)(F)F)n2)CC1)c1ccc(-c2cccc(F)c2)nc1` [Example 136, 6-(3-Fluorophenyl)-N-{1-[4-(trifluoromethyl)pyrimidin-2-yl]piperidin-4-yl}nicotinamide]: 5.12 nM. With `Cn1cc(CN2CCC(NC(=O)c3ccc(-c4cccc(F)c4)nc3)CC2)cn1` [Example 196, 6-(3-Fluorophenyl)-N-{1-[(1-methyl-1H-pyrazol-4-yl)methyl]piperidin-4-yl}nicotinamide], the IC50 is 1.35 nM.

Take `N#Cc1ccc(Oc2ccc(CN3CCC(NC(=O)c4ccc(-c5cccc(F)c5)nc4)CC3)cn2)cc1` [Example 308, N-(1-{[6-(4-Cyanophenoxy)pyridin-3-yl]methyl}piperidin-4-yl)-6-(3-fluorophenyl)nicotinamide]: the IC50 was 2.03 nM.

As for `COc1ccccc1Cn1nnnc1N1CCC(NC(=O)c2ccc(-c3cccc(F)c3)nc2)CC1` [Example 96, 6-(3-Fluorophenyl)-N-{1-[1-(2-methoxybenzyl)-1H-tetrazol-5-yl]piperidin-4-yl}nicotinamide], the IC50 stood at 1.19 nM.

With `Cn1nc(-c2ccccc2)c(CN2CCC(NC(=O)c3ccc(-c4cccc(F)c4)nc3)CC2)c1Cl` [Example 195, N-{1-[(5-Chloro-1-methyl-3-phenyl-1H-pyrazol-4-yl)methyl]piperidin-4-yl}-6-(3-fluorophenyl)nicotinamide], the IC50 was 0.194 nM.

As to `O=C(NC1CCN(c2cccnn2)CC1)c1cnc(-c2cccc(F)c2)c(Cl)c1` [Example 621, 5-Chloro-6-(3-fluorophenyl)-N-(1-pyridazin-3-ylpiperidin-4-yl)nicotinamide], the IC50 came out at 1.59 nM.

`Cc1nc(N)cc(N2CCC(NC(=O)c3ccc(-c4cccc(F)c4)nc3)CC2)n1` [Example 133, N-[1-(6-Amino-2-methylpyrimidin-4-yl)piperidin-4-yl]-6-(3-fluorophenyl)nicotinamide]: the IC50 is 0.395 nM. Next, `O=C(NC1CCN(c2cnc3ccccc3n2)CC1)c1ccc(-c2cccc(F)c2)nc1` [Example 138, 6-(3-Fluorophenyl)-N-(1-quinoxalin-2-ylpiperidin-4-yl)nicotinamide]: 1.23 nM.
